Source: US8357634B2, “N-alkoxycarboxamides and their use as microbiocides” (Syngenta Crop Protection LLC, priority 2009, dated 2013)

Experiments:
[1] = test system: Mycosphaerella arachidis (Cercospora arachidicola); assay: Example B-2: Action against Mycosphaerella arachidis, fungal growth assay; format: cell-based; conditions: 0.002% active ingredient, PDB broth, 24° C., photometric after 6-7 days
Procedure: (§1) Action Against Mycosphaerella arachidis (Early Leaf Spot of Groundnut; Cercospora arachidicola [fanamorph])—Fungal Growth Assay Conidia of the fungus from cryogenic storage were directly mixed into nutrient broth (PDB potato dextrose broth). After placing a (DMSO) solution of the test compounds (0.002% active ingredient) into a microtiter plate (96-well format) the nutrient broth containing the fungal spores was added. The test plates were incubated at 24° C. and the inhibition of growth was measured photometrically after 6-7 days. The activity of a compound was expressed as fungal growth inhibition (0=no growth inhibition, ratings of 80% to 99% mean good to very good inhibition, 100%=complete inhibition).

Puccinia recondita [2] = assay: Example B-6: Protective action against Puccinia recondita (brown rust) on wheat leaf segments; format: in vivo; conditions: foliar, 192 h, 0.02% active ingredient, 8 days after inoculation, read-out: preventive fungicidal activity (inhibition)
Procedure: (§2) Protective Action Against Puccinia recondita (Brown Rust) on Wheat Wheat leaf segments were placed on agar in multiwell plates (24-well format) and sprayed with test solutions (0.02% active ingredient). After drying, the leaf disks were inoculated with a spore suspension of the fungus. After appropriate incubation the activity of a compound was assessed 8 days after inoculation as preventive fungicidal activity.

[3] = test system: Erysiphe graminis f. sp. tritici; assay: Example B-5: Action against Erysiphe graminis f. sp. tritici (wheat powdery mildew), wheat leaf segments; format: in vivo; conditions: Blumeria graminis, foliar, 168 h, 0.02% active ingredient, 7 days after inoculation, read-out: preventive fungicidal activity (inhibition)
Procedure: as §2, with “Action” for “Protective Action”, “Erysiphe graminis f. sp. tritici (Wheat Powdery Mildew)” for “Puccinia recondita (Brown Rust) on Wheat”, “7” for “8”

Septoria tritici = assay: Example B-3: Action against Septoria tritici, fungal growth assay; format: cell-based; conditions: Zymoseptoria tritici; 0.002% active ingredient; PDB broth, 24° C., photometric after 72 hrs
Procedure: as §1, with “Septoria tritici—Fungal” for “Mycosphaerella arachidis (Early Leaf Spot of Groundnut; Cercospora arachidicola [fanamorph])—Fungal”, “determined” for “measured”, “72 hrs.” for “6-7 days.”

Pyrenophora teres [4] = assay: Example B-8: Action against Pyrenophora teres (net blotch) on barley leaf segments; format: in vivo; conditions: foliar, 96 h, 0.02% active ingredient, 4 days after inoculation, read-out: preventive fungicidal activity (inhibition)
Procedure: as §2, with “Action” for “Protective Action”, “Pyrenophora teres (Net Blotch)” for “Puccinia recondita (Brown Rust)”, “Barley Barley” for “Wheat Wheat”, “4” for “8”

Botrvtis cinerea = assay: Example B-1: Action against Botrytis cinerea, fungal growth assay; format: cell-based; conditions: 0.002% active ingredient, PDB broth, 24° C., photometric after 3-4 days
Procedure: as §1, with “Action against Botrvtis cinerea—fungal growth assay” for “Action Against Mycosphaerella arachidis (Early Leaf Spot of Groundnut; Cercospora arachidicola [fanamorph])—Fungal Growth Assay”, “storage was” for “storage were”, “after 3-4” for “after 6-7”

Puccinia recondita [5] = assay: Example B-10: Puccinia recondita / wheat / leaf disc preventative (comparative); format: in vivo; conditions: 8 dpi
Procedure: Puccinia recondita/Wheat/Leaf Disc Preventative (Brown Rust) Wheat leaf segments were placed on agar in multiwell plates (24-well format) and sprayed with test solutions. After drying, the leaf disks were inoculated with a spore suspension of the fungus. After appropriate incubation the activity of a compound was assessed 8 dpi (days after inoculation) as preventive fungicidal activity.

Gaeumannomyces graminis = assay: Example B-17: Gaeumannomyces graminis / liquid culture (comparative); format: cell-based; conditions: 24 C, photometric after 2-3 days, read-out: inhibition of growth
Procedure: (§3) Gaeumannomyces graminis/Liquid Culture (Take-All of Cereals) Mycelial fragments of the fungus from cryogenic storage were directly mixed into nutrient broth (PDB potato dextrose broth). After placing a (DMSO) solution of the test compounds into a microtiter plate (96-well format) the nutrient broth containing the fungal spores was added. The test plates were incubated at 24 C and the inhibition of growth was determined photometrically after 2-3 days.

Alternaria solani = assay: Example B-13: Alternaria solani / tomato / leaf disc (comparative); format: in vivo; conditions: 4 dpi
Procedure: Alternaria solani/Tomato/Leaf Disc (Early Blight) Tomato leaf disks were placed on water agar in multiwell plates (24-well format) and sprayed with test solutions. After drying, the leaf disks were inoculated with a spore suspension of the fungus. After appropriate incubation the activity of a compound was assessed 4 dpi (days after inoculation) as preventive fungicidal activity.

[6] = test system: Mycosphaerella praminicola (Seotoria tritici); assay: Example B-16: Mycosphaerella graminicola (Septoria tritici) / liquid culture (comparative); format: cell-based; conditions: 96 h, 24° C., photometric after 4 days, read-out: inhibition of growth
Procedure: as §3, with “Mycosphaerella praminicola (Seotoria tritici)/Liquid” for “Gaeumannomyces graminis/Liquid”, “(Septoria Blotch) Conidia” for “(Take-All of Cereals) Mycelial fragments”, “24° C.” for “24 C”, “is measured” for “was determined”, “4” for “2-3”

Pyrenophora teres [7] = assay: Example B-12: Pyrenophora teres / barley / leaf disc preventive (comparative); format: in vivo; conditions: 4 dpi
Procedure: (§4) Pyrenophora teres/Barley/Leaf Disc Preventive (Net Blotch) Barley leaf segments were placed on agar in a multiwell plate (24-well format) and sprayed with test solutions. After drying, the leaf disks were inoculated with a spore suspension of the fungus. After appropriate incubation the activity of a compound was assessed 4 dpi (days after inoculation) as preventive fungicidal activity.

[8] = test system: Monopraphella nivalis (Microdochium nivale); assay: Example B-18: Monographella nivalis (Microdochium nivale) / liquid culture (comparative); format: cell-based; conditions: 24° C., photometric after 4-6 days, read-out: inhibition of growth
Procedure: as §3, with “Monopraphella nivalis (Microdochium nivale)/Liquid” for “Gaeumannomyces graminis/Liquid”, “(Foot Rot Cereals Conidia” for “(Take-All of Cereals) Mycelial fragments”, “24° C.” for “24 C”, “is measured” for “was determined”, “4-6” for “2-3”

[9] = test system: Phaeosphaeria nodorum (Septoria nodorum); assay: Example B-11: Phaeosphaeria nodorum / wheat / leaf disc preventative (comparative); format: in vivo; conditions: 4 dpi
Procedure: as §4, with “Phaeosphaeria nodorum (Septoria nodorum)/Wheat/Leaf” for “Pyrenophora teres/Barley/Leaf”, “Preventative (Glume” for “Preventive (Net”, “Wheat” for “Barley”

[10] = test system: Mycosphaerella arachidis (Cercospora arachidicola); assay: Example B-15: Mycosphaerella arachidis / liquid culture (comparative); format: cell-based; conditions: 24° C., photometric after 6-7 days, read-out: inhibition of growth
Procedure: as §3, with “Mycosphaerella arachidis (Cercospora arachidicola)/Liquid” for “Gaeumannomyces graminis/Liquid”, “(Early Leaf Spot) Conidia” for “(Take-All of Cereals) Mycelial fragments”, “24° C.” for “24 C”, “is measured” for “was determined”, “6-7” for “2-3”

[11] = test system: Botryotinia fuckeliana (Botrytis cinerea); assay: Example B-14: Botryotinia fuckeliana (Botrytis cinerea) / liquid culture (comparative); format: cell-based; conditions: 24° C., photometric after 3-4 days, read-out: inhibition of growth
Procedure: Botryotinia fuckeliana (Botrytis cinerea)/Liquid Culture (Gray Mould) Conidia of the fungus from cryogenic storage were directly mixed into nutrient broth. After placing a (DMSO) solution of the test compounds into a microtiter plate (96-well format) the nutrient broth containing the fungal spores was added. The test plates were incubated at 24° C. and the inhibition of growth is determined photometrically after 3-4 days.

[12] = test system: Blumeria graminis f. sp. tritici (Erysiphe graminis f. sp. tritici); assay: Example B-9: Blumeria graminis f. sp. tritici / wheat / leaf disc preventive (comparative); format: in vivo; conditions: 4 dpi
Procedure: as §4, with “Blumeria graminis f. sp. tritici (Erysiphe graminis f. sp. tritici)/Wheat/Leaf” for “Pyrenophora teres/Barley/Leaf”, “(Powdery mildew on wheat) Wheat” for “(Net Blotch) Barley”

CON(C(=O)c1cn(C)nc1C(F)F)C(C)c1ccc(Oc2ccc(Cl)cc2)cc1 (stereo not shown) [Compound 1.010, 3-difluoromethyl-1-methyl-1H-pyrazole-4-carboxylic acid {1-[4-(4-chloro-phenoxy)-phenyl]-ethyl}-methoxy-amide]
≥ 80%: inhibition at 0.002 % strength [1] | inhibition at 0.02 % strength (Puccinia recondita [2]) | inhibition at 0.02 % strength [3] | inhibition at 0.002 % strength (Septoria tritici) | inhibition at 0.02 % strength (Pyrenophora teres [4]) | inhibition at 0.002 % strength (Botrvtis cinerea)

CON(C(=O)c1cn(C)nc1C(F)F)C(C)c1cccc(-c2ccc(Cl)cc2)c1 (stereo not shown) [Compound 1.019, 3-difluoromethyl-1-methyl-1H-pyrazole-4-carboxylic acid [1-(4′ chloro-biphenyl-3-yl)-ethyl]-methoxy-amide]
≥ 80%: inhibition at 0.002 % strength [1] | inhibition at 0.02 % strength (Puccinia recondita [2]) | inhibition at 0.02 % strength [3] | inhibition at 0.002 % strength (Septoria tritici) | inhibition at 0.02 % strength (Pyrenophora teres [4]) | inhibition at 0.002 % strength (Botrvtis cinerea)

CON(C(=O)c1cn(C)nc1C(F)F)C(C)c1cccc(Oc2ccc(Cl)cc2)c1 (stereo not shown) [Compound 1.021, 3-difluoromethyl-1-methyl-1H-pyrazole-4-carboxylic acid {1-[3-(4-chloro-phenoxy)-phenyl]-ethyl}-methoxy-amide]
≥ 80%: inhibition at 0.002 % strength [1] | inhibition at 0.02 % strength (Puccinia recondita [2]) | inhibition at 0.02 % strength [3] | inhibition at 0.002 % strength (Septoria tritici) | inhibition at 0.02 % strength (Pyrenophora teres [4]) | inhibition at 0.002 % strength (Botrvtis cinerea)

CON(Cc1cccc(I)c1)C(=O)c1cn(C)nc1C(F)F [Compound 1.097, 3-difluoromethyl-1,1-dimethyl-1H-pyrazole-4-carboxylic acid (3-iodo-benzyl)-methoxy-amide]
114 to 116 °C: melting point
≥ 80%: inhibition at 0.002 % strength [1] | inhibition at 0.002 % strength (Septoria tritici) | inhibition at 0.002 % strength (Botrvtis cinerea)

CON(Cc1cccc(-c2ccc(Cl)cc2)c1)C(=O)c1cn(C)nc1C(F)F [Compound 1.098, 3-difluoromethyl-1-methyl-1H-pyrazole-4-carboxylic acid (4′-chloro-biphenyl-3-ylmethyl)-methoxy-amide]
≥ 80%: inhibition at 0.002 % strength [1] | inhibition at 0.02 % strength (Puccinia recondita [2]) | inhibition at 0.02 % strength [3] | inhibition at 0.002 % strength (Septoria tritici) | inhibition at 0.02 % strength (Pyrenophora teres [4]) | inhibition at 0.002 % strength (Botrvtis cinerea)

CC(NC(=O)c1cn(C)nc1C(F)F)c1ccc(Cl)cc1Cl (stereo not shown) [No. 1.042 (prior art), reference compound]
50: preventive fungicidal activity (Puccinia recondita [5]; 200 ppm) | preventive fungicidal activity (Pyrenophora teres [7]; 20 ppm) | preventive fungicidal activity ([12]; 60 ppm)
20%: inhibition at 6 ppm ([6]; 6 ppm) | inhibition at 60 ppm ([11]; 60 ppm)
20: preventive fungicidal activity (Alternaria solani; 60 ppm)
100: preventive fungicidal activity (Pyrenophora teres [7]; 200 ppm) | preventive fungicidal activity ([12]; 200 ppm)
0: preventive fungicidal activity (Puccinia recondita [5]; 20 ppm) | preventive fungicidal activity (Puccinia recondita [5]; 60 ppm) | preventive fungicidal activity (Alternaria solani; 20 ppm) | preventive fungicidal activity ([9]; 20 ppm) | preventive fungicidal activity ([9]; 60 ppm) | preventive fungicidal activity ([12]; 20 ppm)
50%: inhibition at 60 ppm ([8]; 60 ppm) | inhibition at 200 ppm ([11]; 200 ppm)
0%: inhibition at 6 ppm (Gaeumannomyces graminis; 6 ppm) | inhibition at 20 ppm (Gaeumannomyces graminis; 20 ppm) | inhibition at 60 ppm (Gaeumannomyces graminis; 60 ppm) | inhibition at 6 ppm ([8]; 6 ppm) | inhibition at 20 ppm ([8]; 20 ppm) | inhibition at 6 ppm ([10]; 6 ppm) | inhibition at 20 ppm ([11]; 20 ppm)
70: preventive fungicidal activity (Alternaria solani; 200 ppm) | preventive fungicidal activity ([9]; 200 ppm)
100%: inhibition at 20 ppm ([6]; 20 ppm) | inhibition at 60 ppm ([6]; 60 ppm) | inhibition at 20 ppm ([10]; 20 ppm) | inhibition at 60 ppm ([10]; 60 ppm)
90: preventive fungicidal activity (Pyrenophora teres [7]; 60 ppm)
